In ChEMBL document CHEMBL3137667, “[Drug-induced liver injury; fourteenth updated edition of the bibliographic database of liver injuries and related drugs]” (Gastroenterol Clin Biol, 2004):

Experiments:
[1] = human
[2] = human, serum
[3] = Comments (NB not yet translated). [column 'COMMENTAIRES' in source]; settings: human
[4] = human; remark: listed apart in the source
[5] = human; remark: listed apart in the source
[6] = human; remark: listed apart in the source
[7] = Proposed mechanism(s) of liver damage. [column 'MEC' in source]; settings: human
[8] = Times to onset, minimal and maximal, observed in the indexed observations. [column 'DELAI' in source]; settings: human
[9] = human; remark: listed apart in the source
[10] = human, serum, 4383 h
[11] = human, serum; remark: listed apart in the source
[12] = human; remark: listed apart in the source
[13] = human; remark: listed apart in the source
[14] = Highest frequency of acute liver toxicity observed during clinical trials, expressed as a percentage. [column '% AIGUE' in source]; settings: human
[15] = human; remark: listed apart in the source
[16] = human; remark: listed apart in the source
[17] = Highest frequency of moderate liver toxicity observed during clinical trials, expressed as a percentage. [column '% BIOL' in source]; settings: human
[18] = human; remark: listed apart in the source
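For Hepatotoxicity (association with vascular disease) in this document: count of indexed literature references reporting vascular liver injury in humans, e.g. peliosis hepatitis, hepatic veno-occlusive disease or Budd-Chiari syndrome.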
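For Hepatotoxicity (benign tumour) in this document: value is a count of indexed literature references citing a benign tumour confirmed by histopathology.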
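For Hepatotoxicity (choleostasis) in this document: human cholestatic liver injury, shown by histopathology or by peak ALT or AST elevation over alkaline phosphatase ratio below 2, value counts indexed literature reports.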
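For Hepatotoxicity (chronic liver disease) in this document: chronic liver injury confirmed by histopathology or persistently raised serum aminotransferase activity beyond 6 months, value given as the count of indexed literature references.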
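For Hepatotoxicity (cirrhosis) in this document: value is a count of indexed literature references reporting cirrhosis confirmed by histopathology.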
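For Hepatotoxicity (cytolytic) in this document: human cytolytic liver injury, shown by histopathology or by a ratio above 5 of peak ALT or AST elevation to alkaline phosphatase elevation, value counts indexed references.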
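For Hepatotoxicity (granulomatous hepatitis) in this document: value is a count of indexed literature references reporting granulomatous liver disease confirmed by histopathology.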
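For Hepatotoxicity (malignant tumour) in this document: malignant tumour confirmed by histopathology, value gives the count of indexed literature references reporting it.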
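For Hepatotoxicity (severe hepatitis) in this document: human clinical data: severe hepatitis, meaning potentially life-threatening liver failure or clinically observed cases, the value counts how many indexed literature references report it.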
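For Hepatotoxicity (steatosis) in this document: steatosis confirmed by histopathology, value is the count of indexed references.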

SMILES	Hepatotoxicity (malignant tumour) [1]	Hepatotoxicity (moderate) [2]	Hepatotoxicity (comment) [3]	Hepatotoxicity (animal toxicity known) [4]	Hepatotoxicity (choleostasis) [5]	Hepatotoxicity (severe hepatitis) [6]	Hepatotoxicity (mechanism) [7]	Hepatotoxicity (time to onset) [8]	Hepatotoxicity (steatosis) [9]	Hepatotoxicity (chronic liver disease) [10]	Hepatotoxicity (acute) [11]	Hepatotoxicity (benign tumour) [12]	Hepatotoxicity (granulomatous hepatitis) [13]	Hepatotoxicity (acute) [14]	Hepatotoxicity (cirrhosis) [15]	Hepatotoxicity (cytolytic) [16]	Hepatotoxicity (moderate) [17]	Hepatotoxicity (association with vascular disease) [18]
CC1(C)S[C@@H]2[C@H](NC(=O)Cc3ccccc3)C(=O)N2[C@H]1C(=O)O [PENICILLIN G]	0	9	CHOLESTASE_PROLONGEE CHOLANGITE AC_ANTI-N	yes	9	1	Allergic	0.5 hour - 18 days	0	1	17	0	3	0%	0	5	13.2%	0
CC(=O)Oc1ccccc1C(=O)O [ASPIRIN]	0	30	#S.REYE	yes	2	6	Dose-dependant, Reactive metabolite	1 week - 5 years	0	5	31	0	3	0%	1	26	66%	0
C=COCC(F)(F)F [FLUROXENE]	0	2	I/PHENOBARBITAL/PHENYTOINE	yes	0	2	Toxic Metabolite	1 day - 5 days	0	0	4	0	0	0%	0	3	30.4%	0
CN(C/C=C/C#CC(C)(C)C)Cc1cccc2ccccc12 [TERBINAFINE]	0	21	CHOLANGITE DUCTOPENIE CHOLESTASE_PROLONGEE	yes	15	3	Reactive metabolite	1 week - 6 months	0	1	23	0	0	0%	0	7	36.7%	1
